Results taken from ChEMBL document CHEMBL1781971, “Discovery of 5-(arenethynyl) hetero-monocyclic derivatives as potent inhibitors of BCR-ABL including the T315I gatekeeper mutant” (Bioorg Med Chem Lett, 2011).

Experiments:
Rattus norvegicus [1] = assay: AUC in rat at 5 mg/kg, iv; format: ADME, organism-based, Plasma; parameters: dose 5 mg/kg, route intravenous; conditions: in vivo
[2] = Volume of distribution in rat at 5 mg/kg, iv; format: ADME, organism-based; parameters: dose 5 mg/kg, route intravenous; conditions: in vivo
Rattus norvegicus [3] = assay: AUC in rat at 15 mg/kg, po; format: ADME, organism-based, Plasma; parameters: dose 15 mg/kg, route oral; conditions: in vivo
cells [4] = conditions: Mus musculus, BaF3
cells [5] = conditions: Mus musculus, BaF3; remark: listed apart in the source
Description: Antiproliferative activity against mouse BA/F3 cells expressing wild type BCR-ABL

[6] = Half life in rat at 5 mg/kg, iv; format: ADME, organism-based; parameters: dose 5 mg/kg, route intravenous; conditions: in vivo
[7] = Cmax in rat at 5 mg/kg, iv; format: ADME, organism-based; parameters: dose 5 mg/kg, route intravenous; conditions: in vivo
[8] = Cmax in rat at 15 mg/kg, po; format: ADME, organism-based; parameters: dose 15 mg/kg, route oral; conditions: in vivo
[9] = Plasma concentration in mouse after 6 hrs at 30 mg/kg, po; format: ADME, organism-based; parameters: dose 30 mg/kg, route oral
[10] = target: Tyrosine-protein kinase ABL1 (Homo sapiens, UniProt P00519)
[11] = Half life in rat at 15 mg/kg, po; format: ADME, organism-based; parameters: dose 15 mg/kg, route oral; conditions: in vivo
[12] = Oral bioavailability in rat at 15 mg/kg; format: ADME, organism-based; conditions: in vivo
cells [13] = conditions: Mus musculus, BaF3; remark: listed apart in the source
Description: Antiproliferative activity against BCR-ABL-negative parental mouse BA/F3 cells

[14] = target: Tyrosine-protein kinase ABL1 (Homo sapiens, UniProt P00519, T315I)
[15] = Clearance in rat at 5 mg/kg, iv; format: ADME, organism-based; parameters: dose 5 mg/kg, route intravenous; conditions: in vivo

Row | Compound | AUC (Rattus norvegicus [1]) [h/ng/mL] | Vd [2] [L/kg] | AUC (Rattus norvegicus [3]) [h/ng/mL] | IC50 (cells [4]) [nM] | IC50 (cells [5]) [nM] | half-life [6] [h] | Cmax [7] [ng/mL] | Cmax [8] [ng/mL] | concentration at 6 h [9] [ng/mL] | IC50 [10] [nM] | half-life [11] [h] | bioavailability [12] [%] | IC50 (cells [13]) [nM] | IC50 [14] [nM] | clearance [15] [mL/min/kg]
1 | Cc1ccc(C(=O)Nc2ccc(CN3CCN(CCO)CC3)c(C(F)(F)F)c2)cc1C#Cc1cnc(C(N)=O)n1C | 2320 | 11 | 962 | 5.8 | 0.61 | 3.5 | 598 | 61.4 | 333 | 3.6 | 6.3 | 14 | 1320 | 36 | 35.8
2 | Cc1ccc(C(=O)Nc2ccc(CN3CCN(C)CC3)c(C(F)(F)F)c2)cc1C#Cc1cccnc1 |  |  |  | 45.5 | 4.1 |  |  |  |  | 40.3 |  |  | 2040 | 123 | 
3 | Cc1ccc(C(=O)Nc2ccc(CN3CCN(C)CC3)c(C(F)(F)F)c2)cc1C#Cc1cncnc1 | 5308 | 8.5 | 13559 | 65 | 3.1 | 6.2 | 822 | 900 | 771 | 62.7 | 10 | 85 | 2820 | 435 | 15.7
4 | CCC(=O)Nc1ccc(C#Cc2cc(C(=O)Nc3ccc(CN4CCN(C)CC4)c(C(F)(F)F)c3)ccc2C)cn1 |  |  |  | 13.4 | 2.5 |  |  |  |  | 28.6 |  |  | 1660 | 104 | 

Continued by falling IC50 (cells [4]), values first:

Row | AUC (Rattus norvegicus [1]) [h/ng/mL] | Vd [2] [L/kg] | AUC (Rattus norvegicus [3]) [h/ng/mL] | IC50 (cells [4]) [nM] | IC50 (cells [5]) [nM] | half-life [6] [h] | Cmax [7] [ng/mL] | Cmax [8] [ng/mL] | concentration at 6 h [9] [ng/mL] | IC50 [10] [nM] | half-life [11] [h] | bioavailability [12] [%] | IC50 (cells [13]) [nM] | IC50 [14] [nM] | clearance [15] [mL/min/kg] | Compound
5 |  |  |  | 5740 | 730 |  |  |  |  | 1000 |  |  | 6550 | 3720 |  | Cc1ccc(C(=O)Nc2ccc(CN3CCN(C)CC3)c(C(F)(F)F)c2)cc1C#Cc1cnc[nH]1
6 |  |  |  | 709 | 43 |  |  |  |  | 129 |  |  | 5650 | 550 |  | Cc1ccc(C(=O)Nc2ccc(CN3CCN(C)CC3)c(C(F)(F)F)c2)cc1C#Cc1cncn1C
7 |  |  |  | 519 | 195 |  |  |  |  | 49.7 |  |  | 607 | 457 |  | Cc1ccc(C(=O)Nc2ccc(CN3CCN(C)CC3)c(C(F)(F)F)c2)cc1C#Cc1cnc(NC2CC2)nc1
8 |  |  |  | 18 | 2.6 |  |  |  |  | 48.7 |  |  | 1020 | 321 |  | Cc1ccc(C(=O)Nc2ccc(CN3CCN(C)CC3)c(C(F)(F)F)c2)cc1C#Cc1ccc(C(N)=O)nc1
9 |  |  |  | 9.6 | 2.2 |  |  |  |  | 18 |  |  | 1790 | 121 |  | CC(=O)Nc1ccc(C#Cc2cc(C(=O)Nc3ccc(CN4CCN(C)CC4)c(C(F)(F)F)c3)ccc2C)cn1
